Reference: US20240358846A1, “Nanoparticles and Peptides for the Delivery of Cargos to Muscle Cells” (4BASEBIO, S.L.U., priority 2021, published 2024)

How the values were obtained:
H9C2 cells = assay: GFP expression in H9C2 cells transfected with nucleic acid-lipid-peptide nanoparticles (flow cytometry); assay type: cell-based, rat; conditions: 300 ng/well; for cells GFP positive (transfection efficiency): 48 h post-transfection; for GFP positive cells (transfection efficiency): mRNA in lipid-peptide nanoparticles, 4 h post transfection, FIG. 13
Experimental: H9C2 cells, an immortalised cell line derived from embryonic rate heart tissue were cultured in Dulbecco's Modified Eagle's Medium (DMEM, Gibco) containing 10% fetal bovine serum (FBS, Gibco) and 1% pen/strep (Gibco).
Transfections in H9C2 cells were performed with a range of peptide:liposome:nucleic acid cargo ratios. Transfections were performed in a 96-well plate at a density of 8,000 cells per well seeded 24 h previously. Closed linear DNA/mRNA was maintained at a constant mass of 300 ng per well, while peptide component was altered. The molar ratio of the cationic lipid C18 to the phospholipid DOPE was kept at 2:1 (DD 2:1), while cholesterol was added at a molar percentage of 10% of the total lipid content. The mass ratio of closed linear DNA/mRNA:liposome:peptide was maintained at 1:5:2.52.
(§1) Transfection complexes were formed via electrostatic interaction by vigorous pipetting, before diluting in a final volume of 200 ul per well, with a DNA concentration of 1.5 ng/ul. All dilutions were performed with OptiMEM reduced serum media. Controls included cells with no transfection complexes added (OptiMEM only), complexes targeting a different cell, or complexes with no targeting sequence component.
Transfection complexes were incubated for 30 min at RT before adding to cells. All conditions were performed in triplicate. Cells were incubated at 37° C. for 4 hours, before replacing media with growth media.
In the case of mRNA, 4 h post-transfection, the cells were rinsed in PBS, before incubation in 0.05% Trypsin EDTA (Gibco) to detach the cells. Cells were then resuspended in PBS for analysis by flow cytometry. In the case of closed linear DNA, 48 h post-transfection, the cells were rinsed in PBS, before incubation in 0.05% Trypsin EDTA (Gibco) to detach the cells. Cells were then resuspended in PBS for analysis by flow cytometry.

[1] = Size and polydispersity index of closed linear DNA-lipid-peptide nanoparticles by DLS (FIG. 15); assay type: physicochemical; conditions: C18/CHOL/DOPE (58/10/32)
Experimental: Dynamic Light Scattering (DLS) measurements were conducted using Zetasizer Ultra (Malvern Panalytical). Each bar represents average value of three measurements (n=3). Complexes were prepared as before, except formulated in nuclease-free water rather than Opti-MEM. Samples containing 0.7 μg closed linear DNA were diluted in 1 ml for analysis. Particles ranged from 37 nm (MD2L) to 57 nm (MD2CC), with PDI values ranging from 0.12 to 0.28. Liposomes encapsulating closed linear DNA with no targeting ligand were used as a control, with a larger size of 70 nm and PDI of 0.13.

C2C12 cells [2] = assay: GFP expression in C2C12 cells transfected with pDNA:lipid:peptide nanoparticles (flow cytometry, microscopy); assay type: cell-based, mouse; conditions: 48 h; for GFP transfection efficiency: pDNA:lipid:peptide, MD2 in different conformations, FIG. 4; for GFP transfection efficiency / cells expressing GFP (GFP expression level, transfection efficiency): DD 2:1 with 20% cholesterol; for cells expressing GFP (GFP expression level, transfection efficiency): pDNA:lipid:peptide nanoparticles, different targeting sequences, FIG. 2
Experimental: C2C12 cells, an immortalised mouse myoblast line, were cultured in Dulbecco's Modified Eagle's Medium (DMEM, Gibco) containing 10% fetal bovine serum (FBS, Gibco) and 1% pen/strep (Gibco).
Transfections in C2C12 cells were performed with a range of peptide:liposome:nucleic acid cargo ratios. Transfections were performed in a 96-well plate at a density of 8,000 cells per well seeded 24 h previously. Charge and mass ratio of components in the transfection complex varied; DNA was maintained at a constant mass of 300 ng per well, while lipid component was altered. In one case, the molar ratio of the cationic lipid C18 to the phospholipid DOPE was kept at 1:1 (DD). In another case, the molar ratio of the cationic lipid C18 to the phospholipid DOPE was kept at 2:1 (DD 2:1), while cholesterol was added at a molar percentage of 10 or 20% of the total lipid content. The mass ratio of linear DNA:liposome:peptide was maintained at 1:3:3, while the muscle-cell binding peptides were in some cases altered.
as §1, with “μl” for “ul”, “ng/μl.” for “ng/ul.”, “only).” for “only), complexes targeting a different cell, or complexes with no targeting sequence component.”
Transfection complexes were incubated for 30 min at RT before adding to cells. All conditions were performed in triplicate. Cells were incubated at 37° C. for 4 hours, before replacing media with growth media. 48 h post-transfection, the cells were rinsed in PBS, before incubation in 0.05% Trypsin EDTA (Gibco) to detach the cells. Cells were then re-suspended in PBS for analysis by flow cytometry.

C2C12 cells [3] = assay: GFP expression in C2C12 cells transfected with mRNA:lipid:peptide nanoparticles; assay type: cell-based, mouse; conditions: mRNA:lipid:peptide 1:5:2.5, DOTMA/DOPE 2:1 with 10% cholesterol, 500 ng/well, 4 h, FIG. 16
Experimental: Shown in FIG. 16 is GFP expression in C2C12 cells transfected with mRNA derived from linearised plasmid encapsulated in lipid-peptide nanoparticles.
(§2) Nanoparticles were formulated manually by pipetting following a mass ratios of 1:5:2.5 (mRNA:lipid:peptide). Firstly, the components mRNA, lipid and peptide were suspended in Ultra pure water in volumes of 60 ul, 60 ul and 80 ul, respectively. Components were mixed following the order-lipid to peptide, mRNA to lipid+peptide mix. Nanoparticles were allowed to incubate for 30 minutes at room temperature. All samples were diluted in serum-free media before transferring them onto cells. C2C12 cells were transfected with 500 ng/well of mRNA nanoparticles. The microplate was centrifuged at 12000 rpm for 5 minutes and incubated at 37 C for 4 hours. After 4 hours, cells were trypsinised and prepared for FAQs.

[4] = Size and PDI of mRNA:lipid:peptide nanoparticles (FIG. 19); assay type: physicochemical; conditions: DOTMA/DOPE 2:1 with 10% cholesterol
Source text: Table presented in FIG. 19 presents size (nm) and polydispersity index (PDI) values for the mRNA:lipid:peptide nanoparticles. Sizes of fully formed nanoparticles range from 31 nm for MD2, to 37 nm for MD3 while nanoparticles formulated without a peptide are 61 nm. PDI value is low across all samples which translates into low polydispersity of the nanoparticle population.

C2C12 cells [5] = assay: GFP expression in C2C12 cells transfected with closed linear DNA:lipid:peptide nanoparticles; assay type: cell-based, mouse; conditions: DOTMA/DOPE 2:1 with 10% cholesterol, 300 ng/well, 48 h, FIG. 20
Experimental: GFP expression was measured 48 h post transfection. n=3 in all experiments, error bars=S.D. Nanoparticles containing no peptide were used as a control. […] Nanoparticles containing no peptide in their formulation lead to a transfection efficiency of 12% indicating the lowest transfection efficiency in treated cells.
as §2, with “1:3:2.1.6 (closed linear DNA:lipid:peptide).” for “1:5:2.5 (mRNA:lipid:peptide).”, “closed linear DNA,” for “components mRNA,”, “closed linear DNA” for “mRNA”, “300” for “500”, “closed linear DNA.” for “mRNA nanoparticles.”, “Flow Cytometry analysis.” for “FAQs.”

HEK293 cells [6] = assay: GFP expression in HEK293 cells transfected with plasmid DNA-peptide complexes or DNA-lipid-peptide nanoparticles; assay type: cell-based; conditions: particles formed using DNA and peptide only, 48 h, FIG. 5
Experimental: GFP expression was imaged 48 h post transfection. n=3 in all experiments, error bars=S.D.
The high expression in C2C12 compared with HEK293 cells is particularly impressive owing to the high transfection efficiency achievable in HEK293 cells.

[7] = Biophysical characterisation of DNA-lipid-peptide nanoparticle (DLS, ELS, MADLS); assay type: physicochemical
Experimental: The size in nm by Dynamic Light Scattering (DLS), zeta potential in mV by Electrophoretic Light Scattering (ELS), and concentration of particles per ml by Multi-Angle Dynamic Light Scattering (MADLS) of the hpDNA-lipid-peptide nanoparticles was determined using the Zetasizer Ultra (Malvern). Complexes were prepared as before, except formulated in nuclease-free water rather than Opti-MEM. Samples containing 0.7 μg plasmid were diluted in 1 ml for analysis.

HEK293 cells [8] = assay: In-vitro transfection efficiency in HEK293 cells of closed linear DNA nanoparticles stored at +4° C. (luciferase assay); assay type: cell-based; conditions: 300 ng closed linear DNA nanoparticles stored up to 40 weeks at +4° C., tested every 5 weeks, FIG. 22B
Experimental: Nanoparticles were transfected in HEK293 cells at 5 week intervals. GFP expression was measured 48 h post transfection. n=3 in all experiments.
Shown in FIG. 22B is relative luminescence units per microgram of protein (RLU/mg of protein) of HEK293 cells transfected with closed linear DNA nanoparticles stored for 40 weeks at +4° C. […] Cells were transfected with 300 ng of closed linear DNA nanoparticles every 5 weeks.

[9] = Size and PDI of miRNA-lipid-peptide complexes, hand-mixing vs microfluidics (DLS); assay type: physicochemical; conditions: FIG. 23; for size of complexes: C18/DOPE 2:1 with 10% cholesterol
Source text: Shown in FIG. 23 is size and polydispersity index (PDI) of miDNA-lipid-peptide complexes formulated through two different methods: hand-mixing—where complexes are formed by vigorous pipetting using a micropipette; or through a microfluidics platform. The lipid components comprised of C18/DOPE at a molar ratio of 2:1 with 10% cholesterol. The final formulation was following a mass ratio of 1:5 closed linear DNA:liposomes with N/P ratio of 6 driven by the peptide C1L-N-16-K16GAAPWHLSSQYSRT (SEQ ID NO: 49).
The hand-mixed complexes were formed by firstly suspending each of the components in ultra pure water, with the following mixing order-liposomes to peptide, closed linear DNA to liposomes+peptide complexes. Nanoparticles were allowed to incubate for 30 minutes at room temperature prior to a further dilution in water required for biophysical charaterisation by a DLS system (Zetasizer Ultra-Malvern).
For complexes formed through a microfluidics device (Nanoassemblr Ignite-Precision Nanosystems), lipid components were suspended in 99% pure ethanol at identical ratios to hand-mixed particles. Lipid components in ethanol were loaded onto the instrument along with miRNA and peptide C1L, both suspended in water. A flow rate ratio (FRR) of 1:3 of miRNA to lipid was mixed together at a total flow rate (TFR) of 12 mL/min prior to the addition of the peptide (FRR of 1:1, TFR 12 mL/min). The complexes formulated using the Nanoassemblr we then dialysed for 4 h using a Slide-a-Lyzer dialysis cassette (ThermoFisher) to remove residual ethanol.

[10] = plasmid DNA-lipid-peptide nanoparticles, FIG. 10
[11] = closed linear DNA-lipid-peptide nanoparticles, FIG. 11

Substance: KKKKKKKKKKKKKKKKGAASSLNIA [MD1L]
- cells GFP positive (transfection efficiency) (H9C2 cells; [10]): 20%

Substance: KKKKKKKKKKKKKKKKRVRRGACRRQPPRSISSHPC [MD2CC]
- size (DLS) [1]: 57 nm
- GFP transfection efficiency (C2C12 cells [2]; C2C12): 50.06%

Substance: SKTFNTHPQSTP [MD3]
- cells expressing GFP (transfection efficiency) (C2C12 cells [3]): 72%
- cells expressing GFP (GFP expression level, transfection efficiency) (C2C12 cells [2]; C2C12): 22.68%
- size [4]: 37 nm

Substance: KKKKKKKKKKKKKKKKRVRRGACSKTFNTHPQSTPC [MD3CC]
- cells expressing GFP (transfection efficiency) (C2C12 cells [5]): 25%

Substance: RRQPPRSISSHP [MD2]
- cells expressing GFP (transfection efficiency) (C2C12 cells [3]): 59%
- cells expressing GFP (GFP expression level, transfection efficiency) (C2C12 cells [2]; C2C12): 50.1%
- size [4]: 31 nm

Substance: KKKKKKKKKKKKKKKKGACRRQPPRSISSHPC [MD2C]
- GFP expression visualised by microscopy (HEK293 cells [6]): No GFP expression
- GFP transfection efficiency (C2C12 cells [2]; C2C12): 30.08%
- GFP expression visualised by microscopy (C2C12 cells [2]; C2C12, particles formed using DNA and peptide only, FIG. 5): some GFP expression
- GFP expression, C2C12 compared to HEK293 cells (specificity) (C2C12 cells [2]; fully formed nanoparticle with lipid DD with 10% cholesterol, FIG. 5): much higher in C2C12 cells as compared to HEK293 cells
- size of the particle (DLS) ([7]; DNA-lipid-peptide nanoparticle, C18 (DOTMA) DOPE 10% cholesterol, FIG. 6A): 89.4 nm
- zeta potential (ELS) ([7]; DNA-lipid-peptide nanoparticle, C18 (DOTMA) DOPE 10% cholesterol, FIG. 6B): 24.8 mV
- particle titre (MADLS) ([7]; accounting for the 1 in 100 dilution, FIG. 6E, F): 10 E12 particles per ml
- cells GFP positive (transfection efficiency) (H9C2 cells; [11]): 6%
- cells GFP positive (transfection efficiency) (H9C2 cells; [10]): 26%

Substance: ASSLNIA [MD1]
- cells expressing GFP (transfection efficiency) (C2C12 cells [3]): 73%
- cells expressing GFP (GFP expression level, transfection efficiency) (C2C12 cells [2]; C2C12): 73%

Substance: KKKKKKKKKKKKKKKKGARRQPPRSISSHP [MD2L]
- transfection efficiency after storage (luminescence signal, luciferase assay) (HEK293 cells [8]): sustained luminescence signal across all time points
- size (DLS) [1]: 37 nm
- GFP transfection efficiency (C2C12 cells [2]; C2C12): 8.24%
- GFP positive cells (transfection efficiency) (H9C2 cells): 33%
- cells GFP positive (transfection efficiency) (H9C2 cells; [10]): 27%

Substance: KKKKKKKKKKKKKKKKKKKKKKKKKKKKKKGACRRQPPRSISSHPC [MD2C-K30, targeting peptide named MD2C-K30]
- cells GFP positive (transfection efficiency) (H9C2 cells; [11]): 5%

Substance: KKKKKKKKKKKKKKKKRVRRGACASSLNIAC [MD1CC]
- cells expressing GFP (transfection efficiency) (C2C12 cells [5]): 29%

Substance: KKKKKKKKKKKKKKKKGAAPWHLSSQYSRT [C1L-N-16]
- size of complexes ([9]; hand-mixed): 60 nm
- size of complexes ([9]; microfluidics): 40 nm
- PDI ([9]; hand-mixed): 0.23
- PDI ([9]; microfluidics): 0.16

Substance: KKKKKKKKKKKKKKKKGAWLSEAGPVVTVRALRGTGSW [C2L-N-16]
- GFP positive cells (transfection efficiency) (H9C2 cells): 26%
